Tests used:
Pseudomonas aeruginosa [1] = test: Antibacterial activity against Pseudomonas aeruginosa ATCC 15442 assessed as growth inhibition by M7-A6 method; assay type: functional
Pseudomonas aeruginosa [2] = test: Antibacterial activity against Pseudomonas aeruginosa ATCC 9027 assessed as growth inhibition by M7-A6 method; assay type: functional
[3] = Cytotoxicity against human HeLa cells assessed as cell viability at 10 ug/ml after 72 hrs by MTT assay; assay type: cell-based; settings: read-out: Activity
Staphylococcus aureus [4] = test: Antibacterial activity against penicillin, erythromycin, clindamycin, ciprofloxacin, methicillin-resistant Staphylococcus aureus 19K/11 assessed as growth inhibition by M7-A6 method; assay type: functional
[5] = Cytotoxicity against human HeLa cells assessed as cell viability at 100 ug/ml after 48 hrs by MTT assay; assay type: cell-based; settings: read-out: Activity
Staphylococcus aureus [6] = test: Antibacterial activity against Staphylococcus aureus ATCC 6538P assessed as growth inhibition by M7-A6 method; assay type: functional
[7] = Cytotoxicity against human A549 cells assessed as cell viability at 100 ug/ml after 48 hrs by MTT assay; assay type: cell-based; settings: read-out: Activity
[8] = Cytotoxicity against human HeLa cells assessed as cell viability at 50 ug/ml after 72 hrs by MTT assay; assay type: cell-based; settings: read-out: Activity
HeLa [9] = test: Cytotoxicity against human HeLa cells assessed as inhibition of cell viability after 72 hrs by MTT assay; assay type: cell-based
[10] = Cytotoxicity against human A549 cells assessed as cell viability at 10 ug/ml after 72 hrs by MTT assay; assay type: cell-based; settings: read-out: Activity
Staphylococcus aureus [11] = test: Antibacterial activity against penicillin, erythromycin, amikacin, clindamycin, ciprofloxacin, methicillin-resistant Staphylococcus aureus 573/12 assessed as growth inhibition by M7-A6 method; assay type: functional
[12] = Cytotoxicity against human HeLa cells assessed as cell viability at 50 ug/ml after 48 hrs by MTT assay; assay type: cell-based; settings: read-out: Activity
Bacillus subtilis = test: Antibacterial activity against Bacillus subtilis ATCC 6633 assessed as growth inhibition by M7-A6 method; assay type: functional
A549 [13] = test: Cytotoxicity against human A549 cells assessed as inhibition of cell viability after 48 hrs by MTT assay; assay type: cell-based; settings: A549, 48 h
[14] = Cytotoxicity against human A549 cells assessed as cell viability at 50 ug/ml after 72 hrs by MTT assay; assay type: cell-based; settings: read-out: Activity
[15] = Cytotoxicity against human A549 cells assessed as cell viability at 200 ug/ml after 72 hrs by MTT assay; assay type: cell-based; settings: read-out: Activity
[16] = Cytotoxicity against human HeLa cells assessed as cell viability at 10 ug/ml after 48 hrs by MTT assay; assay type: cell-based; settings: read-out: Activity
[17] = Cytotoxicity against human A549 cells assessed as cell viability at 10 ug/ml after 48 hrs by MTT assay; assay type: cell-based; settings: read-out: Activity
Staphylococcus aureus [18] = test: Antibacterial activity against erythromycin, amikacin, clindamycin, ciprofloxacin, methicillin-resistant Staphylococcus aureus 15K/11 assessed as growth inhibition by M7-A6 method; assay type: functional
Staphylococcus aureus [19] = test: Antibacterial activity against penicillin, erythromycin, amikacin, clindamycin, ciprofloxacin, methicillin-resistant Staphylococcus aureus 495/11 assessed as growth inhibition by M7-A6 method; assay type: functional
Candida albicans [20] = test: Antifungal activity against Candida albicans ATCC 2091 assessed as growth inhibition by M7-A6 method; assay type: functional
A549 [21] = test: Cytotoxicity against human A549 cells assessed as inhibition of cell viability after 72 hrs by MTT assay; assay type: cell-based; settings: A549, 72 h
Micrococcus luteus [22] = test: Antibacterial activity against Micrococcus luteus ATCC 9341 assessed as growth inhibition by M7-A6 method; assay type: functional
Escherichia coli = test: Antibacterial activity against Escherichia coli ATCC 8739 assessed as growth inhibition by M7-A6 method; assay type: functional
Saccharomyces cerevisiae = test: Antifungal activity against Saccharomyces cerevisiae ATCC 9763 assessed as growth inhibition by M7-A6 method; assay type: functional
[23] = Cytotoxicity against human HeLa cells assessed as cell viability at 100 ug/ml after 72 hrs by MTT assay; assay type: cell-based; settings: read-out: Activity
Bacillus cereus = test: Antibacterial activity against Bacillus cereus ATCC 11778 assessed as growth inhibition by M7-A6 method; assay type: functional
Candida albicans [24] = test: Antifungal activity against Candida albicans ATCC 10231 assessed as growth inhibition by M7-A6 method; assay type: functional
[25] = Cytotoxicity against human A549 cells assessed as cell viability at 50 ug/ml after 48 hrs by MTT assay; assay type: cell-based; settings: read-out: Activity
Staphylococcus aureus [26] = test: Antibacterial activity against Staphylococcus aureus ATCC 6538 assessed as growth inhibition by M7-A6 method; assay type: functional
Staphylococcus aureus [27] = test: Antibacterial activity against penicillin, erythromycin, amikacin, clindamycin, ciprofloxacin, methicillin-resistant Staphylococcus aureus 572/12 assessed as growth inhibition by M7-A6 method; assay type: functional
[28] = Cytotoxicity against human A549 cells assessed as cell viability at 200 ug/ml after 48 hrs by MTT assay; assay type: cell-based; settings: read-out: Activity
Micrococcus luteus [29] = test: Antibacterial activity against Micrococcus luteus ATCC 10240 assessed as growth inhibition by M7-A6 method; assay type: functional
[30] = Cytotoxicity against human HeLa cells assessed as cell viability at 200 ug/ml after 48 hrs by MTT assay; assay type: cell-based; settings: read-out: Activity
Aspergillus brasiliensis = test: Antifungal activity against Aspergillus brasiliensis ATCC 16404 assessed as growth inhibition by M7-A6 method; assay type: functional
[31] = Cytotoxicity against human A549 cells assessed as cell viability at 100 ug/ml after 72 hrs by MTT assay; assay type: cell-based; settings: read-out: Activity
HeLa [32] = test: Cytotoxicity against human HeLa cells assessed as inhibition of cell viability after 48 hrs by MTT assay; assay type: cell-based
Candida parapsilosis = test: Antifungal activity against Candida parapsilosis ATCC 22019 assessed as growth inhibition by M7-A6 method; assay type: functional; settings: Lodderomyces parapsilosis
[33] = Cytotoxicity against human HeLa cells assessed as cell viability at 200 ug/ml after 72 hrs by MTT assay; assay type: cell-based; settings: read-out: Activity

Cl.N=C(NC1CCCCC1)c1ccc(OCCSCCOc2ccc(C(=N)NC3CCCCC3)cc2)cc1
MIC (Pseudomonas aeruginosa [1]): > 1630 µM | MIC (Pseudomonas aeruginosa [2]): > 1630 µM | viability at 72 h, 10 ug/ml [3]: 94.6% | MIC (Staphylococcus aureus [4]): 12 µM | viability at 48 h, 100 ug/ml [5]: 70.8% | MIC (Staphylococcus aureus [6]): 3.2 µM | viability at 48 h, 100 ug/ml [7]: 63.9% | viability at 72 h, 50 ug/ml [8]: 96.6% | IC50 (HeLa [9]): > 100 µg/mL | viability at 72 h, 10 ug/ml [10]: 69.6% | MIC (Staphylococcus aureus [11]): 12 µM | viability at 48 h, 50 ug/ml [12]: 95.8% | MIC (Bacillus subtilis): 12 µM | IC50 (A549 [13]): > 100 µg/mL | viability at 72 h, 50 ug/ml [14]: 59.2% | viability at 72 h, 200 ug/ml [15]: 54.3% | viability at 48 h, 10 ug/ml [16]: 95.3% | viability at 48 h, 10 ug/ml [17]: 84.6% | MIC (Staphylococcus aureus [18]): 100 µM | MIC (Staphylococcus aureus [19]): 200 µM | MIC (Candida albicans [20]): 3.2 µM | IC50 (A549 [21]): ≥ 50 µg/mL | MIC (Micrococcus luteus [22]): 3.2 µM | MIC (Escherichia coli): 100 µM | MIC (Saccharomyces cerevisiae): 24 µM | viability at 72 h, 100 ug/ml [23]: 66.9% | MIC (Bacillus cereus): 100 µM | MIC (Candida albicans [24]): 3.2 µM | viability at 48 h, 50 ug/ml [25]: 74.9% | MIC (Staphylococcus aureus [26]): 3.2 µM | MIC (Staphylococcus aureus [27]): 100 µM | viability at 48 h, 200 ug/ml [28]: 61.4% | MIC (Micrococcus luteus [29]): 0.81 µM | viability at 48 h, 200 ug/ml [30]: 15.3% | MIC (Aspergillus brasiliensis): 3.2 µM | viability at 72 h, 100 ug/ml [31]: 59.7% | IC50 (HeLa [32]): > 100 µg/mL | MIC (Candida parapsilosis): 3.2 µM | viability at 72 h, 200 ug/ml [33]: 12.3%

— ChEMBL document CHEMBL3286290, “In vitro screening of pentamidine analogs against bacterial and fungal strains” (Bioorg Med Chem Lett, 2014)
